From paper PMC7438494 (Communications Biology, 2020)
Several values for one entry are separate records, joined by “and”; a condition that tells them apart may be missing. Equal entries are not always repeated. Where two headings read alike, the source gives them in different places.

Assays:
[1] = target: yeast mitochondrial ATP synthase (Saccharomyces cerevisiae, UniProt P00854+P61829); experiment: biochemical
yeast F1Fo ATP synthase = yeast F1Fo ATP synthase (Saccharomyces cerevisiae, UniProt P00854+P61829); experiment: biochemical
yeast mitochondria = experiment: Membrane potential of yeast mitochondria, fluorescence quenching of Rhodamine 123; format: biochemical, Saccharomyces cerevisiae; details: high concentrations
Protocol: The membrane potential was assessed by measuring fluorescence quenching of Rhodamine 123 at 488 nm excitation and 525 nm emission in a buffer containing 0.65 M mannitol, 20 mM bis-tris-propane, 2 mM tris-phosphate, 0.3 mM EGTA, pH 6.8 with Rhodamine 123 dissolved in methanol (1.0 µM). Yeast mitochondria were energized with ethanol (0.4% v/v), whereas human mitochondria were energized with glutamate/malate (5 mM/2.5 mM).

[2] = target: yeast mitochondrial ATP synthase (yeast SMP) (Saccharomyces cerevisiae, UniProt P00854+P61829); experiment: biochemical; details: for ATP hydrolysis activity, Exp 1-3: SMP data
[3] = test system: human mitochondrial ATP synthase; details: reviewer's remark; ref previous reports; read-out: IC50, ATPase activity of human mitochondrial ATP synthase; cited from earlier work
[4] = 3rd exp (2-1-19), Bedaquiline 0.05 μM, frozen yeast mito, 60 min
[5] = 3rd exp (2-1-19), Bedaquiline 0.1 μM, frozen yeast mito, 60 min
[6] = 3rd exp (2-1-19), Bedaquiline 0.5 μM, frozen yeast mito, 60 min
[7] = 3rd exp (2-1-19), Bedaquiline 1 μM, frozen yeast mito, 60 min
[8] = 3rd exp (2-1-19), Bedaquiline 1.4 μM, frozen yeast mito, 60 min
[9] = 3rd exp (2-1-19), Bedaquiline 2 μM, frozen yeast mito, 60 min
[10] = 3rd exp (2-1-19), Bedaquiline 4 μM, frozen yeast mito, 60 min
[11] = 3rd exp (2-1-19), Bedaquiline 6 μM, frozen yeast mito, 60 min
[12] = right-hand regression, fits the SMP data

COc1nc2ccc(Br)cc2cc1[C@@H](c1ccccc1)[C@@](O)(CCN(C)C)c1cccc2ccccc12 [BDQ, Bedaquiline]
inhibition at 0.005 µM ([1]; 3rd exp (2-1-19), Bedaquiline 0.005 μM, frozen yeast mito, 60 min): -1.01% | Cyanide sensitive ATP synthesis [1, 4]: 53.0953 nmol/min/mg | activity at 0.05 µM [1, 4]: 96.2% | inhibition at 0.05 µM [1, 4]: 3.75% | Cyanide sensitive ATP synthesis [1, 5]: 53.6873 nmol/min/mg | activity at 0.1 µM [1, 5]: 97.3% | inhibition at 0.1 µM [1, 5]: 2.68% | Cyanide sensitive ATP synthesis [1, 6]: 38.5022 nmol/min/mg | activity at 0.5 µM [1, 6]: 69.8% | inhibition at 0.5 µM [1, 6]: 30.2% | Cyanide sensitive ATP synthesis [1, 7]: 33.4087 nmol/min/mg | activity at 1 µM [1, 7]: 60.6% | inhibition at 1 µM ([1]; 3rd exp (2-1-19), Bedaquiline 1 μM, frozen yeast mito, 60 min, read-out: % inhibition): 39.4% | Cyanide sensitive ATP synthesis [1, 8]: 18.8899 nmol/min/mg | activity at 1.4 µM [1, 8]: 34.2% | inhibition at 1.4 µM [1, 8]: 65.8% | Cyanide sensitive ATP synthesis [1, 9]: 16.8178 nmol/min/mg | activity at 2 µM [1, 9]: 30.5% | inhibition at 2 µM [1, 9]: 69.5% | Cyanide sensitive ATP synthesis [1, 10]: 2.063 nmol/min/mg | activity at 4 µM [1, 10]: 3.74% | inhibition at 4 µM [1, 10]: 96.3% | activity at 6 µM [1, 11]: 1.81% | inhibition at 6 µM [1, 11]: 98.2% | IC50 ([1]; IC50 ± SEM, ATP synthesis, yeast mitochondria): 1100 nM and ~1100 nM | Hillslope, four parameter logistic fit (yeast F1Fo ATP synthase; BDQ, F1Fo in bicelles): -1.0426 | max, four parameter logistic fit (yeast F1Fo ATP synthase; BDQ, F1Fo in bicelles, […]): 1.167 | min, four parameter logistic fit (yeast F1Fo ATP synthase; BDQ, F1Fo in bicelles, […]): 0.2116 | EC50 (yeast F1Fo ATP synthase; BDQ, F1Fo in bicelles, x in µM BDQ, read-out: EC50, four parameter logistic fit (coefficient) (converted)): 0.0272 µM | ATP hydrolysis activity (ΔA340nm), Exp 1-3 (yeast F1Fo ATP synthase; F1Fo in bicelles, BDQ 0.0246 uM): 0.6436 and 0.6522 and 0.6471 | ATP hydrolysis activity (ΔA340nm), Exp 1-3 (yeast F1Fo ATP synthase; F1Fo in bicelles, BDQ 0.0372 uM): 0.615 and 0.6977 and 0.5128 | ATP hydrolysis activity (ΔA340nm), Exp 1-3 (yeast F1Fo ATP synthase; F1Fo in bicelles, BDQ 0.0744 uM): 0.5405 and 0.4979 and 0.4346 | ATP hydrolysis activity (ΔA340nm), Exp 1-3 (yeast F1Fo ATP synthase; F1Fo in bicelles, BDQ 0.25 uM): 0.379 and 0.272 and 0.2957 | ATP hydrolysis activity (ΔA340nm), Exp 1-3 (yeast F1Fo ATP synthase; F1Fo in bicelles, BDQ 0.37 uM): 0.3688 and 0.2428 and 0.2764 | ATP hydrolysis activity (ΔA340nm), Exp 1-3 (yeast F1Fo ATP synthase; F1Fo in bicelles, BDQ 0.74 uM): 0.2533 and 0.2466 and 0.2454 | ATP hydrolysis activity (ΔA340nm), Exp 1-3 (yeast F1Fo ATP synthase; F1Fo in bicelles, BDQ 1.49 uM): 0.2105 and 0.2204 and 0.2061 | ATP hydrolysis activity (ΔA340nm), Exp 1-3 (yeast F1Fo ATP synthase; F1Fo in bicelles, BDQ 3.72 uM): 0.2216 and 0.2051 and 0.1755 | ATP hydrolysis activity (ΔA340nm), Exp 1-3 (yeast F1Fo ATP synthase; F1Fo in bicelles, BDQ 7.44 uM): 0.2035 and 0.2344 and 0.1804 | ATP hydrolysis activity (ΔA340nm), Exp 1-3 (yeast F1Fo ATP synthase; F1Fo in bicelles, BDQ 18.61 uM): 0.2777 and 0.1895 and 0.1989 | ATP hydrolysis activity (ΔA340nm), Exp 1-3 (yeast F1Fo ATP synthase; F1Fo in bicelles, BDQ 37.22 uM): 0.2178 and 0.2279 and 0.1889 | ATP hydrolysis activity (ΔA340nm), Exp 1-3 (yeast F1Fo ATP synthase; F1Fo in bicelles, BDQ 52.11 uM): 0.1835 and 0.2422 and 0.1841 | ATP hydrolysis activity (ΔA340nm), Exp 1-3 (yeast F1Fo ATP synthase; F1Fo in bicelles, BDQ 74.45 uM): 0.1959 and 0.193 and 0.2223 | inhibition of ATP hydrolysis by yeast F1Fo (extent) (yeast F1Fo ATP synthase; F1Fo in bicelles, maximal): ~85% | IC50 (yeast F1Fo ATP synthase; F1Fo in bicelles, n = 3, read-out: IC50 ± SEM, ATP hydrolysis, purified yeast F1Fo): 27 ± 2.5 nM | IC50 (yeast F1Fo ATP synthase; F1Fo in bicelles, read-out: IC50, ATP hydrolysis, purified yeast F1Fo): ~25 nM | EC50 (yeast F1Fo ATP synthase; reconstituted in bicelles, n = 3, read-out: EC50, inhibition of the ATPase activity of purified yeast ATP synthase): 0.027 ± 0.0025 µM | effect on membrane potential, yeast mitochondria (yeast mitochondria): partial effect | EC50 [2]: 1280 nM | IC50 ([2]; IC50 ± SEM, ATP hydrolysis, yeast SMP): 1280 ± 250 nM | ATP hydrolysis activity, Exp 1-3 ([2]; BDQ 0.0372 uM): 0.9086 and 0.8616 and 0.8497 | ATP hydrolysis activity, Exp 1-3 ([2]; BDQ 0.0744 uM): 0.9524 and 0.7514 and 0.8742 | ATP hydrolysis activity, Exp 1-3 ([2]; BDQ 0.3722 uM): 0.7241 and 0.758 and 0.7412 | ATP hydrolysis activity, Exp 1-3 ([2]; BDQ 0.7445 uM): 0.71 and 0.6674 and 0.5944 | ATP hydrolysis activity, Exp 1-3 ([2]; BDQ 1.489 uM): 0.489 and 0.4879 and 0.5368 | ATP hydrolysis activity, Exp 1-3 ([2]; BDQ 3.7225 uM): 0.2859 and 0.2741 and 0.3273 | ATP hydrolysis activity, Exp 1-3 ([2]; BDQ 7.4449 uM): 0.2679 and 0.4735 and 0.3345 | ATP hydrolysis activity, Exp 1-3 ([2]; BDQ 18.6123 uM): 0.1786 and 0.215 and 0.285 | ATP hydrolysis activity, Exp 1-3 ([2]; BDQ 37.2245 uM): 0.1804 and 0.145 and 0.1981 | Hillslope, four parameter logistic fit, second regression [2, 12]: -1.0668 | max, four parameter logistic fit, second regression [2, 12]: 0.8923 | min, four parameter logistic fit, second regression [2, 12]: 0.1853 | IC50 [3]: 200000 nM
